From US7179920B2, “3-thia-4-arylquinolin-2-one derivatives” (Bristol-Myers Squibb Company, priority 2003, dated 2007) come the findings set out here.

Structures are written as SMILES.

In data set [1] the test system is cloned mammalian (mSlo or hSlo) BK (Maxi-K) channel. Put plainly: Assay for BK channel openers: two-electrode voltage clamp of BK-mediated outward current in Xenopus oocytes. As to conditions: voltage step to +140 mV. It counts as cell-based. The source says: The experimental media (modified Barth's solution) consisted of millimolar (“mM”): NaCl (88), NaHCO3 (2.4), KCl (1.0), HEPES (10), MgSO4 (0.82), Ca(NO3)2 (0.33), CaCl2 (0.41); pH 7.5.
Background: In two-electrode clamp one electrode senses voltage and the other passes current.

Data set [2] relates to rabbit corpus cavernosum tissue. Put plainly: Rabbit corpus cavernosum strips: relaxation of phenylephrine-induced force. As to conditions: Oryctolagus cuniculus; inhibition of phenylephrine (3 μM)-induced force as compared to vehicle control; read-out: % Inhibition of force (RCC strips). On the procedure:
The ability of the compounds of the invention to relax rabbit corpus cavernosum tissue as a model for the treatment of erectile dysfunction is described as follows. New Zealand white rabbits (3.4–3.7 kg) were euthanized by sodium pentobarbital (100 mg/kg) overdose. The penis from each animal was rapidly removed and immersed in a cold oxygenated modified Krebs Henseleit bicarbonate buffer. The penis' outer tunica was removed and the corpus cavernosum smooth muscle obtained and cut into strips approximately 3–5 mm long. The strips were suspended in tissue baths containing physiological salt solution (see above), and allowed to equilibrate for at least one hour under resting tension of 1.0 gram. Isometric force was measured as described above. Tissue strips were stimulated with the α-agonist phenylephrine (3 μM) and allowed to reach a steady level of force prior to the addition of test compounds. The results are expressed as the percentage inhibition of phenylephrine-induced force as compared to vehicle control.

Data set [3] relates to rat small intestine tissue. Put plainly: Rat small intestine (ileum) strips: inhibition of nifedipine-sensitive force. As to conditions: integral of nifedipine-sensitive force, 30 min post-compound. The source says:
The ability of the compounds of the invention to relax rat small intestine tissue as a model for the treatment of irritable bowel syndrome is described as follows. Male rats (Harlan, Sprague Dawley, 250–350 g) were sacrificed by decapitation. A portion of small intestine (ileum) was removed and the attached connective tissues and intestinal contents removed. The ileum was cut into segments of ≦1 cm in length. The segments were mounted longitudinally between fixed hooks in organ baths containing warm (37° C.) physiological salt solution (composition in mM: NaCl 118.4, KCl 4.7, KH2PO4 1.2, MgSO4 1.2, CaCl2 1.8, Glucose 10.1, NaHCO3 25; gassed with 95% O2/5% CO2, pH 7.4). A stable tension of ˜1.5 g was maintained in the tissue segments during the equilibration period of 45 minutes. Changes in muscle tension were measured with isometric force transducers (Grass, FT-03C) and recorded using AcqKnowledge data acquisition system (AcqKnowledge for MP100WS, Biopac Systems Inc., Goleta, Calif.). Compound or vehicle was added in the baths for 30 minutes. “Zero” active force was established at the end of the experiment using nifedipine (20 μM). The effects of compounds or vehicle on force was determined by measuring the integral of nifedipine-sensitive force (including resting tone and spontaneous contractions) pre- and 30 min post-compound (or vehicle) addition. Results are expressed as the percentage inhibition of force. DMSO vehicle inhibited force (integral) by −0.6±3.0% (n=25).

Where [4] appears, read: at 20 μM, percent increase over BK current in controls.
The mark [5] stands for this setting: at 1 μM, percent increase over BK current in controls.

One may read the melting point as the temperature, or range, at which the solid turns liquid. The term inhibition denotes the change of the read-out against control, counted positive when it falls.

`O=c1[nH]c2ccc(C(F)(F)F)cc2c(-c2cc(Cl)ccc2O)c1SCC(O)CO` (racemic) [Example 17, (±)-4-(5-Chloro-2-hydroxyphenyl)-3-(2,3-dihydroxypropylsulfanyl)-6-trifluoromethyl-1H-quinolin-2-one] returned a melting point of 178 to 180 °C. For the same molecule, in data set [1] (setting [4]), the “% MaxiK opening” value is 246%. For the same molecule, in data set [2], the inhibition came to 31%. In addition, the “% Inhibition of force (RSI strips)” value in data set [3] is recorded as 6%.
The molecule `COc1ccc(Cl)cc1-c1c(SCC(=O)O)c(=O)[nH]c2ccc(C(F)(F)F)cc12` [Example 1] yielded a melting point of 235 °C. Further, the “% MaxiK opening” value in data set [1] (setting [4]) was determined as 155%. Besides, the inhibition in data set [2] was determined as 14%.
Take `CCNC(=O)NCCSc1c(-c2cc(Cl)ccc2OC)c2cc(C(F)(F)F)ccc2[nH]c1=O` [Example 3, 1-{2-[4-(5-Chloro-2-methoxy-phenyl)-2-oxo-6-trifluoromethyl-1,2-dihydro-quinolin-3-ylsulfanyl]-ethyl}-3-ethyl-urea]: the “% MaxiK opening” value in data set [1] (setting [4]) came to 123%. Moreover, the “% Inhibition of force (RSI strips)” value in data set [3] was 17b %.
In the case of `COc1ccc(Cl)cc1-c1c(SCCNC(N)=O)c(=O)[nH]c2ccc(C(F)(F)F)cc12` [Example 4, 1-{2-[4-(5-Chloro-2-methoxy-phenyl)-2-oxo-6-trifluoromethyl-1,2-dihydro-quinolin-3-ylsulfanyl]-ethyl}urea], in data set [1] (setting [4]), the “% MaxiK opening” value is given as 140%.
Turning to `NC(=O)NCCSc1c(-c2cc(Cl)ccc2O)c2cc(C(F)(F)F)ccc2[nH]c1=O` [Example 5, 1-{2-[4-(5-Chloro-2-hydroxy-phenyl)-2-oxo-6-trifluoromethyl-1,2-dihydro-quinolin-3-ylsulfanyl]-ethyl}urea], in data set [1] (setting [4]), the “% MaxiK opening” value is listed as 165%. In addition, the inhibition in data set [2] stood at 65%. The “% Inhibition of force (RSI strips)” value in data set [3] is given as 21%.
For `CNC(=O)NCCSc1c(-c2cc(Cl)ccc2O)c2cc(C(F)(F)F)ccc2[nH]c1=O` [Example 6, 1-{2-[4-(5-Chloro-2-hydroxy-phenyl)-2-oxo-6-trifluoromethyl-1,2-dihydro-quinolin-3-ylsulfanyl]-ethyl}-3-methyl-urea], the “% MaxiK opening” value in data set [1] (setting [4]) came to 176%.
On to `CCNC(=O)NCCSc1c(-c2cc(Cl)ccc2O)c2cc(C(F)(F)F)ccc2[nH]c1=O` [Example 7, 1-{2-[4-(5-Chloro-2-hydroxy-phenyl)-2-oxo-6-trifluoromethyl-1,2-dihydro-quinolin-3-ylsulfanyl]-ethyl}-3-ethyl-urea], for which, in data set [1] (marked ⋄⋄ (concentration footnote not given)), the “% MaxiK opening” value is 160^⋄⋄ %.
As to `O=c1[nH]c2ccc(C(F)(F)F)cc2c(-c2cc(Cl)ccc2O)c1S` [Example 8, 4-(5-Chloro-2-hydroxyphenyl)-3-mercapto-6-trifluoromethyl-1H-quinolin-2-one], the “% MaxiK opening” value in data set [1] (setting [4]) came out at 197%.
`COc1ccc(Cl)cc1-c1c(S)c(=O)[nH]c2ccc(C(F)(F)F)cc12` [Example 9, 4-(5-Chloro-2-methoxyphenyl)-3-mercapto-6-trifluoromethyl-1H-quinolin-2-one] gave a melting point of 239 to 241 °C. Moreover, the “% MaxiK opening” value in data set [1] (setting [5]) is on record as 149^⋄ %.
In the case of `O=c1[nH]c2ccc(C(F)(F)F)cc2c(-c2cc(Cl)ccc2O)c1SCCO` [Example 10, 4-(5-Chloro-2-hydroxyphenyl)-3-(2-hydroxyethylsulfanyl)-6-trifluoromethyl-1H-quinolin-2-one], the melting point was in the range of 278 to 279 °C. Also, the “% MaxiK opening” value in data set [1] (setting [4]) was 348%. The inhibition in data set [2] was found to be 43%.
`N#CCCSc1c(-c2cc(Cl)ccc2O)c2cc(C(F)(F)F)ccc2[nH]c1=O` [Example 11, 3-[4-(5-Chloro-2-hydroxyphenyl)-2-oxo-6-trifluoromethyl-1,2-dihydro-quinolin-3-ylsulfanyl]propionitrile] displayed a melting point of 140 °C. Also, in data set [1] (setting [4]), the “% MaxiK opening” value was 189%.
Take `COCCSc1c(-c2cc(Cl)ccc2O)c2cc(C(F)(F)F)ccc2[nH]c1=O` [Example 12, 4-(5-Chloro-2-hydroxyphenyl)-3-(2-methoxyethylsulfanyl)-6-trifluoromethyl-1H-quinolin-2-one]: in data set [1] (setting [5]), the “% MaxiK opening” value is given as 208^⋄ %.
Consider `N#CCCCSc1c(-c2cc(Cl)ccc2O)c2cc(C(F)(F)F)ccc2[nH]c1=O` [Example 13, 4-[4-(5-Chloro-2-hydroxyphenyl)-2-oxo-6-trifluoromethyl-1,2-dihydro-quinolin-3-ylsulfanyl]butyronitrile], for which the melting point is 217 °C. Moreover, the “% MaxiK opening” value in data set [1] (setting [4]) worked out at 198%.
Take `O=c1[nH]c2ccc(C(F)(F)F)cc2c(-c2cc(Cl)ccc2O)c1SCCCO` [Example 14, 4-(5-Chloro-2-hydroxyphenyl)-3-(3-hydroxypropylsulfanyl)-6-trifluoromethyl-1H-quinolin-2-one]: the melting point was in the range of 178 to 180 °C. Moreover, in data set [1] (setting [4]), the “% MaxiK opening” value amounted to 242%. Further, the inhibition in data set [2] was found to be 23%.
With `COc1ccc(Cl)cc1-c1c(SCCCO)c(=O)[nH]c2ccc(C(F)(F)F)cc12` [Example 15, 4-(5-Chloro-2-methoxyphenyl)-3-(3-hydroxypropylsulfanyl)-6-trifluoromethyl-1H-quinolin-2-one], the melting point is 211 °C. The “% MaxiK opening” value in data set [1] (setting [4]) came out at 140%.
With `COc1ccc(Cl)cc1-c1c(SCCO)c(=O)[nH]c2ccc(C(F)(F)F)cc12` [Example 16, 4-(5-Chloro-2-methoxyphenyl)-3-(2-hydroxyethylsulfanyl)-6-trifluoromethyl-1H-quinolin-2-one], the melting point was in the range of 98 to 100 °C. For the same molecule, in data set [1] (setting [4]), the “% MaxiK opening” value was found to be 149%.
For `O=c1[nH]c2ccc(C(F)(F)F)cc2c(-c2cc(Cl)ccc2O)c1SC[C@@H](O)CO` [Example 18, (S)-4-(5-Chloro-2-hydroxyphenyl)-3-(2,3-dihydroxypropylsulfanyl)-6-trifluoromethyl-1H-quinolin-2-one], the “% MaxiK opening” value in data set [1] (setting [4]) was 223%. The inhibition in data set [2] was 45%.
On the same counts, the results for `O=c1[nH]c2ccc(C(F)(F)F)cc2c(-c2cc(Cl)ccc2O)c1SC[C@H](O)CO` [Example 19, (R)-4-(5-Chloro-2-hydroxyphenyl)-3-(2,3-dihydroxypropylsulfanyl)-6-trifluoromethyl-1H-quinolin-2-one] are 256% and 41%.
`COc1ccc(Cl)cc1-c1c(SCC(O)CO)c(=O)[nH]c2ccc(C(F)(F)F)cc12` (centres unmarked) [Example 20, 4-(5-Chloro-2-methoxyphenyl)-3-(2,3-dihydroxypropylsulfanyl)-6-trifluoromethyl-1H-quinolin-2-one] returned a melting point of 110 to 114 °C. Moreover, the “% MaxiK opening” value in data set [1] (setting [4]) is given as 178%.
With `COc1ccc(Cl)cc1-c1c(S/C=C/CO)c(=O)[nH]c2ccc(C(F)(F)F)cc12` [Example 21], the melting point fell in the range of 148 to 150 °C. Further, the “% MaxiK opening” value in data set [1] (setting [5]) is given as 135^⋄ %.
